Experimental data as given in patent publication US20230051589A1, “COMPOUNDS AND COMPOSITIONS FOR TREATING CONDITIONS ASSOCIATED WITH NLRP ACTIVITY” (Novartis AG, priority 2018, published 2023).

System: IL-1β production in PMA-differentiated THP-1 cells
Assay: IL-1β production in PMA-differentiated THP-1 cells stimulated with gramicidin (hTHP-1 assay, 2% fetal bovine serum; Procedures 1-3)
Type: cell-based, human
Details: hTHP-1 assay containing 2% fetal bovine serum, Table B2, class symbols; read-out: IC50
Method in brief: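 IL-1β released into supernatants was read by HTRF after 2 h gramicidin (5 μM) challenge. Before challenge, compounds (3-fold dilutions, top 100 μM, 0.37% DMSO) were given 1 h on THP-1 cells differentiated with PMA (20 ng/ml, 16-18 h) and held in 2% FBS medium.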

Structure (SMILES) | IC50 [µM]
CN(C)Cc1cnc(S(N)(=O)=NC(=O)Nc2c3c(cc4c2CCC4)CCC3)c(F)c1 (single isomer, unassigned) [Example 518, (R) or (S)-5-((dimethylamino)methyl)-3-fluoro-N′-((1,2,3,5,6,7-hexahydro-s-indacen-4-yl)carbamoyl) pyridine-2-sulfonimidamide] | 1 to 5
CNCC(C)(C)c1ccc(S(N)(=O)=NC(=O)Nc2c3c(cc4c2CCC4)CCC3)cc1 (single isomer, unassigned) [Example 519, (R) or (S)-N′-((1,2,3,5,6,7-hexahydro-s-indacen-4-yl)carbamoyl)-4-(2-methyl-1-(methylamino)propan-2-yl) benzenesulfonimidamide] | 1 to 5
CNCC(C)(C)c1ccc(S(N)(=O)=NC(=O)Nc2c3c(cc4c2CCC4)CCC3)cc1 (single isomer, unassigned) [Example 520, (S) or (R)-N′-((1,2,3,5,6,7-hexahydro-s-indacen-4-yl)carbamoyl)-4-(2-methyl-1-(methylamino)propan-2-yl) benzenesulfonimidamide] | 5 to 30
Cc1c(C2CC2)cc2c(c1NC(=O)N=[S@](N)(=O)c1cc(C(C)(C)O)cs1)CCC2 (single isomer, unassigned) [Example 521, (S) or (R)-N′-((6-cyclopropyl-5-methyl-2,3-dihydro-1H-inden-4-yl)carbamoyl)-4-(2-hydroxyprepan-2-yl)thiophene-2-sulfonimidamide] | 1 to 5
CC(C)(O)c1cncc(S(N)(=O)=NC(=O)Nc2c3c(c(C#N)c4c2CCC4)CCC3)c1 (single isomer, unassigned) [Example 522, (R) or (S)-N′-((8-cyano-1,2,3,5,6,7-hexahydro-s-indacen-4-yl)carbamoyl)-5-(2-hydroxypropan-2-yl)pyridine-3-sulfonimidamide] | 0.2 to 1
CC(C)(O)c1cncc(S(N)(=O)=NC(=O)Nc2c3c(c(C#N)c4c2CCC4)CCC3)c1 (single isomer, unassigned) [Example 523, (S) or (R)-N′-((8-cyano-1,2,3,5,6,7-hexahydro-s-indacen-4-yl)carbamoyl)-5-(2-hydroxypropan-2-yl)pyridine-3-sulfonimidamide] | 5 to 30
NS(=O)(=NC(=O)Nc1c2c(cc3c1CC3)CCC2)c1ccc(CN2CCC2)cc1F (single isomer, unassigned) [Example 524, (R) or (S)-4-(azetidin-1-ylmethyl)-2-fluoro-N′-((2,4,5,6-tetrahydro-1H-cyclobuta[f]inden-3 - yl)carbamoyl) benzenesulfonimidamide] | 0.2 to 1
NS(=O)(=NC(=O)Nc1c2c(cc3c1CC3)CCC2)c1ccc(CN2CCC2)cc1F (single isomer, unassigned) [Example 525, (S) or (R)-4-(azetidin-1-ylmethyl)-2-fluoro-N′-((2,4,5,6-tetrahydro-1H-cyclobuta[f]inden-3 - yl)carbamoyl) benzenesulfonimidamide] | 5 to 30
CC(C)c1cc2c(cc1NC(=O)N=S(N)(=O)c1cnc(C(C)(C)O)s1)CCC2 (single isomer, unassigned) [Example 526, (R) or (S)-2-(2-hydroxypropan-2-yl)-N′-((6-isopropyl-2,3-dihydro-1H-inden-5-yl)carbamoyl)thiazole-5-sulfonimidamide] | 0.2 to 1
CC(C)c1cc2c(cc1NC(=O)N=S(N)(=O)c1cnc(C(C)(C)O)s1)CCC2 (single isomer, unassigned) [Example 527, (S) or (R)-2-(2-hydroxypropan-2-yl)-N′-((6-isopropyl-2,3-dihydro-1H-inden-5-yl)carbamoyl) thiazole-5-sulfonimidamide] | 1 to 5
CNCC1(c2ccc(S(N)(=O)=NC(=O)Nc3c4c(cc5c3CCC5)CCC4)c(F)c2)CC1 (single isomer, unassigned) [Example 528, (R) or (S)-2-fluoro-N′-((1,2,3,5,6,7-hexahydro-s-indacen-4-yl)carbamoyl)-4-(1-((methylamino)methyl)cyclopropyl) benzenesulfonimidamide] | 0.2 to 1
CNCC1(c2ccc(S(N)(=O)=NC(=O)Nc3c4c(cc5c3CCC5)CCC4)c(F)c2)CC1 (single isomer, unassigned) [Example 529, (S) or (R)-2-fluoro-N′-((1,2,3,5,6,7-hexahydro-s-indacen-4-yl)carbamoyl)-4-(1-((methylamino)methyl)cyclopropyl) benzenesulfonimidamide] | 5 to 30
CC(C)(O)c1csc([S@](N)(=O)=NC(=O)Nc2c3c(cc4c2C(=O)CC4)CCC3)c1 (single isomer, unassigned) [Example 530, (R) or (S)-4-(2-hydroxypropan-2-yl)-N′-((3-oxo-1,2,3,5,6,7-hexahydro-s-indacen-4-yl)carbamoyl) (thiophene-2-sulfonimidamide] | 0.04 to 0.2

The next lines start with the values.

IC50 [µM] | Structure (SMILES)
1 to 5 | CC(C)(O)c1csc([S@@](N)(=O)=NC(=O)Nc2c3c(cc4c2C(=O)CC4)CCC3)c1 (single isomer, unassigned) [Example 531, (S) or (R)-4-(2-hydroxypropan-2-yl)-N′-((3-oxo-1,2,3,5,6,7-hexahydro-s-indacen-4-yl)carbamoyl) (thiophene-2 - sulfoniinidamide]
1 to 5 | COCc1nc(C(C)(C)O)sc1S(N)(=O)=NC(=O)Nc1c2c(c(C#N)c3c1CCC3)CCC2 (single isomer, unassigned) [Example 532, (S) or (R)-N′-((8-cyano-1,2,3,5,6,7-hexahydro-s-indacen-4-yl)carbamoyl)-2-(2-hydroxypropan-2-yl)-4-(methoxymethyl) thiazole-5-suifoiiimidamide]
0.2 to 1 | COCc1nc(C(C)(C)O)sc1S(N)(=O)=NC(=O)Nc1c2c(c(C#N)c3c1CCC3)CCC2 (single isomer, unassigned) [Example 533, (R) or (S)-N′-((8-cyano-1,2,3,5,6,7-hexahydro-s-indacen-4-yl)carbamoyl)-2-(2-hydroxypropan-2-yl)-4-(methoxymethyl) thiazole-5-sulfonimidamide]
0.008 to 0.04 | CO[C@H]1COc2c(S(N)(=O)=NC(=O)Nc3c4c(cc5c3CC5)CCC4)cnn2C1 (single isomer, unassigned) [Example 534, (R,6R) or (S,6R)-6-methoxy-N′-((2,4,5,6-tetrahydro-1H-cyclobuta[f]inden-3-yl)carbamoyl)-6,7-dihydro-5H-pyrazolo [5,1-b][1,3]oxazine-3-sulfonimidamide]
1 to 5 | CO[C@H]1COc2c(S(N)(=O)=NC(=O)Nc3c4c(cc5c3CC5)CCC4)cnn2C1 (single isomer, unassigned) [Example 535, (S,6R) or (R,6R)-6-methoxy-N′-((2,4,5,6-tetrahydro-1H-cyclobuta[f]inden-3-yl)caibamoyl)-6,7-dihydro-5H-pyrazolo [5,1-b][1,3]oxazine-3-sulfonimidamide]
5 to 30 | CNCc1ccc(S(N)(=O)=NC(=O)Nc2c3c(cc4c2CC4)CCC3)cc1 (single isomer, unassigned) [Example 536, (S) or (R)-4-((methylamino)methyl)-N′-((2,4,5,6-tetrahydro-1H-cyclobuta[f]inden-3-yl)carbamoyl) benzenesulfonimidamide]
1 to 5 | CNCc1ccc(S(N)(=O)=NC(=O)Nc2c3c(cc4c2CC4)CCC3)cc1 (single isomer, unassigned) [Example 537, (R) or (S)-4-((methylamino)methyl)-N′-((2,4,5,6-tetrahydro-1H-cyclobuta[f]inden-3-yl)carbamoyl) benzenesulfonimidamide]
5 to 30 | CC(C)(O)c1cc(F)c(S(N)(=O)=NC(=O)Nc2c3c(cc4c2C(=O)CC4)CCC3)s1 (single isomer, unassigned) [Example 538, (S) or (R)-3-fluoro-5-(2-hydroxypropan-2-yl)-N′-((3-oxo-1,2,3,5,6,7-hexahydro-s-indacen-4-yl)carbamoyl) thiophene-2-sulfonimidamide]
0.04 to 0.2 | CC(C)(O)c1cc(F)c(S(N)(=O)=NC(=O)Nc2c3c(cc4c2C(=O)CC4)CCC3)s1 (single isomer, unassigned) [Example 539, (R) or (S)-3-fluoro-5-(2-hydroxypropan-2-yl)-N′-((3-oxo-1,2,3,5,6,7-hexahydro-s-indacen-4-yl)carbamoyl) thiophene-2-sulfonimidamide]
1 to 5 | CC(C)(O)c1csc(S(N)(=O)=NC(=O)Nc2c3c(c(C#N)c4c2CCC4)CCC3)n1 (single isomer, unassigned) [Example 540, (S) or (R)-N′-((8-cyano-1,2,3,5,6,7-hexahydro-s-indacen-4-yl)carbamoyl)-4-(2-hydroxypropan-2-yl)thiazole-2-sulfonimidamide]
0.04 to 0.2 | CC(C)(O)c1csc(S(N)(=O)=NC(=O)Nc2c3c(c(C#N)c4c2CCC4)CCC3)n1 (single isomer, unassigned) [Example 541, (R) or (S)-N′-((8-cyano-1,2,3,5,6,7-hexahydro-s-indacen-4-yl)carbamoyl)-4-(2-hydroxypropan-2-yl)thiazole-2-sulfonimidamide]
1 to 5 | CC(C)(O)c1nc(CO)c(S(N)(=O)=NC(=O)Nc2c3c(cc4c2CCC4)CCC3)s1 (single isomer, unassigned) [Example 542, (S) or (R)-N′-((1,2,3,5,6,7-hexahydro-s-indacen-4-yl)carbamoyl)-4-(hydroxymethyl)-2-(2-hydroxypropan-2-yl)thiazole-5-sulfonimidamide]
0.008 to 0.04 | CC(C)(O)c1nc(CO)c(S(N)(=O)=NC(=O)Nc2c3c(cc4c2CCC4)CCC3)s1 (single isomer, unassigned) [Example 543, (R) or (S)-N′-((1,2,3,5,6,7-hexahydro-s-indacen-4-yl)carbamoyl)-4-(hydroxymethyl)-2-(2-hydroxypropan-2-yl)thiazole-5-sulfonimidamide]
5 to 30 | CC(C)(O)c1ccc(S(N)(=O)=NC(=O)Nc2c3c(c(C#N)c4c2CCC4)CCC3)cn1 (single isomer, unassigned) [Example 544, (S) or (R)-N′-((8-cyano-1,2,3,5,6,7-hexahydro-s-indacen-4-yl)carbamoyl)-6-(2-hydroxypropan-2-yl)pyridine-3-sulfonimidamide]
